Experimental data published in US20080242663A1, “NOVEL PYRIMIDINE DERIVATIVES 698” (ASTRAZENECA AB, priority 2007, published 2008).

Tested on: Human Colorectal cancer cells (HT29)
Test: In vivo tumour explant model
Parameters: species or system nude male mice (nu/nu:Alpk)
Settings: HT29 tumours in nude mice, 100 mg/kg b.i.d. orally, 16 consecutive days
Protocol: Human Colorectal cancer cells (HT29 5×10^6 (ATCC HTB-38)) were implanted subcutaneously on to the left flank of nude male mice (nu/nu:Alpk). Actively growing tumours approx 0.2-0.3 cm^3 were selected and randomised. […] Tumours were measured twice weekly and volumes (cm^3) calculated (π/6×(length×width×width)/1000). On the final day of the dosing the tumours were measured, percent growth inhibition was then calculated compared to the control ((([…]-1))*100), where GMDV is the geometric delta volume of either treated (T) or control (C), and a T-Test was performed to establish significance.

SMILES: Cc1ccc(CO)cc1N(C)c1ccnc(Nc2cc(N3CCOCC3)cc(N3CCOCC3)c2)n1 [[3-[[2-[(3,5-dimorpholin-4-ylphenyl)amino]pyrimidin-4-yl]-methyl-amino]-4-methyl-phenyl]methanol]
- tumour volume: reducing tumour volume
